Test: mn = molality of the nth substance listed, in mol/kg
Details: 100 kPa, Liquid; for speed of sound: Frequency=3 MHz, Sing-around technique in a fixed-path interferometer; for mass density: Vibrating tube method

O=C[C@H](O)[C@@H](O)[C@H](O)[C@H](O)CO [D-glucose] + O
Details	mass density [kg/m3]	speed of sound [m/s]
293.15 K, m1 = 0.05008	1001.67	–
293.15 K, m1 = 0.0698	1003.02	1487
293.15 K, m1 = 0.09118	1004.47	1488.3
293.15 K, m1 = 0.1108	1005.8	1489.5
293.15 K, m1 = 0.1312	–	1490.8
298.15 K, m1 = 0.05008	1000.44	–
298.15 K, m1 = 0.0698	1001.76	1501.4
298.15 K, m1 = 0.09118	1003.17	1502.7
298.15 K, m1 = 0.1108	1004.47	1504
298.15 K, m1 = 0.1312	1005.8	1505.3
303.15 K, m1 = 0.05008	999.038	1512.2
303.15 K, m1 = 0.0698	1000.35	1513.4
303.15 K, m1 = 0.09118	1001.76	1514.7
303.15 K, m1 = 0.1108	1003.05	1515.9
303.15 K, m1 = 0.1312	1004.38	1517.2
303.15 K, m1 = 0.1499	1005.58	1518.3
308.15 K, m1 = 0.05008	997.396	1522.8
308.15 K, m1 = 0.0698	998.701	1524
308.15 K, m1 = 0.09118	1000.11	1525.4
308.15 K, m1 = 0.1108	1001.39	1526.6
308.15 K, m1 = 0.1312	1002.71	–
308.15 K, m1 = 0.1499	1003.91	1529
313.15 K, m1 = 0.05008	995.571	1531.6
313.15 K, m1 = 0.0698	996.873	1532.8
313.15 K, m1 = 0.09118	998.274	1534
313.15 K, m1 = 0.1108	999.553	1535.1
313.15 K, m1 = 0.1312	1000.87	1536.2
313.15 K, m1 = 0.1499	1002.06	1537.3
318.15 K, m1 = 0.05008	993.55	–
318.15 K, m1 = 0.0698	994.845	1540.2
318.15 K, m1 = 0.09118	996.24	1541.4
318.15 K, m1 = 0.1108	–	1542.4
318.15 K, m1 = 0.1312	998.817	–
318.15 K, m1 = 0.1499	1000	1544.6
323.15 K, m1 = 0.05008	991.349	1545.3
323.15 K, m1 = 0.0698	992.639	1546.3
323.15 K, m1 = 0.09118	994.028	1547.4
323.15 K, m1 = 0.1108	995.295	1548.5
323.15 K, m1 = 0.1312	996.6	1549.5
323.15 K, m1 = 0.1499	997.788	1550.5

CCC[NH3+].O=C[O-] [propylammonium formate] + O
Details	mass density, m1 = 0.1 [kg/m3]	mass density, m1 = 0.2 [kg/m3]	mass density, m1 = 0.3 [kg/m3]	mass density, m1 = 0.4 [kg/m3]	speed of sound, m1 = 0.1 [m/s]	speed of sound, m1 = 0.2 [m/s]	speed of sound, m1 = 0.3 [m/s]	speed of sound, m1 = 0.4 [m/s]
293.15 K	999.222	1000.07	1000.91	1001.81	1492.2	1500.4	1508.2	1516.9
298.15 K	997.851	998.673	999.689	1000.56	1505.7	1513.4	1520.8	1528.9
303.15 K	996.637	997.448	998.238	999.087	1517.5	1524.9	1531.8	1539.4
308.15 K	994.884	995.676	996.581	997.41	1527.8	1534.7	1541.3	1548.4
313.15 K	993.191	993.97	994.725	995.542	1536.4	1543	1549.3	1555.9
318.15 K	990.986	991.749	992.694	993.502	1543.6	1549.9	1555.9	1562
323.15 K	988.793	989.611	990.498	991.295	1550.5	1555.4	1561.1	1566.9

O [water] + CCC[NH3+].O=C[O-]
m2 = 0
Details	mass density [kg/m3]	speed of sound [m/s]
313.15 K	–	1528.9
318.15 K	–	1536.6
323.15 K	988.031	–

O [water] + O=C[C@H](O)[C@@H](O)[C@H](O)[C@H](O)CO
m2 = 0
Details	mass density [kg/m3]	speed of sound [m/s]
313.15 K	–	1528.9
318.15 K	–	1536.6
323.15 K	988.031	–

Source: the NIST ThermoML archive (doi:10.1016/j.jct.2016.07.051)
